# pIC50: −log10 of the molar value. Structures can show the parent of a compound that is named as a salt.
# Test system: KMS.12.BM cells
# Assay: KMS.12.BM cell viability assay
# Assay type: cell-based
# Conditions: 72 h; KMS.12.BM human myeloma cells, 3 days, Cell Titer-GLO ATP quantitation; read-out: KMS cellular IC50
# Procedure, shortened: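 IC50 derived from luminescent ATP quantitation (Cell Titer-GLO) of viable cells after 3-day compound treatment. KMS.12.BM human myeloma line seeded at 5000 cells/well in RPMI with 10% FBS.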
row,SMILES,pIC50
1,"Cc1nnc2ccc3c(cc(-c4ccn(C5CN(CCO)C5)n4)n3Cc3cccc(Cl)c3)n12 [Example 179, 2-(3-{3-[6-(3-Chlorobenzyl)-1-methyl-6H-pyrrolo[2,3-e][1,2,4]triazolo[4,3-a]pyridin-7-yl]-1H-pyrazol-1-yl}azetidin-1-yl)ethanol bis(trifluoroacetate) salt]",≥ 6.00
2,"Cc1nnc2ccc3c(cc(-c4ccn(C5CN(C)C5)n4)n3Cc3cccc(Cl)c3)n12 [Example 180, 6-(3-Chlorobenzyl)-1-methyl-7-[1-(1-methylazetidin-3-yl)-1H-pyrazol-3-yl]-6H-pyrrolo[2,3-e][1,2,4]triazolo[4,3-a]pyridine bis(trifluoroacetate) salt]",≥ 6.00
3,"Cc1nnc2ccc3c(cc(-c4ccn(C5CN(CCC#N)C5)n4)n3Cc3cccc(Cl)c3)n12 [Example 181, 3-(3-{3-[6-(3-Chlorobenzyl)-1-methyl-6H-pyrrolo[2,3-e][1,2,4]triazolo[4,3-a]pyridin-7-yl]-1H-pyrazol-1-yl}azetidin-1-yl)propanenitrile bis(trifluoroacetate) salt]",≥ 6.00
4,"Cc1nnc2ccc3c(cc(-c4ccn(CCC#N)n4)n3Cc3cccc(CN4CCC4)c3)n12 [Example 183, 3-(3-{6-[3-(Azetidin-1-ylmethyl)benzyl]-1-methyl-6H-pyrrolo[2,3-e][1,2,4]triazolo[4,3-a]pyridin-7-yl}-1H-pyrazol-1-yl)propanenitrile bis(trifluoroacetate) salt]",≥ 6.00
5,"Cc1nnc2ccc3c(cc(-c4ccn(C)n4)n3Cc3cccc(CN4CCC4)c3)n12 [Example 184, 6-[3-(Azetidin-1-ylmethyl)benzyl]-1-methyl-7-(1-methyl-1H-pyrazol-3-yl)-6H-pyrrolo[2,3-e][1,2,4]triazolo[4,3-a]pyridine bis(trifluoroacetate) salt]",≥ 6.00
6,"Cc1nnc2ccc3c(cc(-c4ccn(C)n4)n3Cc3cc(Cl)cc(CN4CCC4)c3)n12 [Example 185, 6-[3-(Azetidin-1-ylmethyl)-5-chlorobenzyl]-1-methyl-7-(1-methyl-1H-pyrazol-3-yl)-6H-pyrrolo[2,3-e][1,2,4]triazolo[4,3-a]pyridine tris(trifluoroacetate) salt]",≥ 6.00
7,"CCn1ccc(-c2cc3c(ccc4nnc(C)n43)n2Cc2cc(Cl)cc(CN3CCC3)c2)n1 [Example 188, 6-(3-(Azetidin-1-ylmethyl)-5-chlorobenzyl)-7-(1-ethyl-1H-pyrazol-3-yl)-1-methyl-6H-pyrrolo[2,3-e][1,2,4]triazolo[4,3-a]pyridine tris(trifluoroacetate) salt]",≥ 6.00
8,"CCn1ccc(-c2cc3c(ccc4nnc(C)n43)n2Cc2cc(Cl)cc(CN3CCCC3)c2)n1 [Example 189, 6-(3-Chloro-5-(pyrrolidin-1-ylmethyl)benzyl)-7-(1-ethyl-1H-pyrazol-3-yl)-1-methyl-6H-pyrrolo[2,3-e][1,2,4]triazolo[4,3-a]pyridine tris(trifluoroacetate) salt]",≥ 6.00
9,"Cc1nnc2ccc3c(cc(-c4ccn(C)n4)n3Cc3cc(Cl)cc(CN4CCCC4)c3)n12 [Example 190, 6-[3-Chloro-5-(pyrrolidin-1-ylmethyl)benzyl]-1-methyl-7-(1-methyl-1H-pyrazol-3-yl)-6H-pyrrolo[2,3-e][1,2,4]triazolo[4,3-a]pyridine bis(trifluoroacetate) salt]",≥ 6.00
10,"Cc1nnc2ccc3c(cc(-c4ccn(C)n4)n3Cc3cc(Cl)cc(CN(C)C)c3)n12 [Example 191, 1-(3-Chloro-5-{[1-methyl-7-(1-methyl-1H-pyrazol-3-yl)-6H-pyrrolo[2,3-e][1,2,4]triazolo[4,3-a]pyridin-6-yl]methyl}phenyl)-N,N-dimethylmethanamine bis(trifluoroacetate) salt]",≥ 6.00
11,"Cc1nnc2ccc3c(cc(-c4ccn(C)n4)n3Cc3cc(Cl)cc(CN4CCOCC4)c3)n12 [Example 192, 6-[3-Chloro-5-(morpholin-4-ylmethyl)benzyl]-1-methyl-7-(1-methyl-1H-pyrazol-3-yl)-6H-pyrrolo[2,3-e][1,2,4]triazolo[4,3-a]pyridine bis(trifluoroacetate) salt]",≥ 6.00
12,"Cc1nnc2ccc3c(cc(C4=NCCO4)n3Cc3cccc(Cl)c3)n12 [Example 193, 6-(3-Chlorobenzyl)-7-(4,5-dihydro-1,3-oxazol-2-yl)-1-methyl-6H-pyrrolo[2,3-e][1,2,4]triazolo[4,3-a]pyridine]",≥ 6.00
13,"Cc1nnc2ccc3c(cc(-c4ncco4)n3Cc3cccc(Cl)c3)n12 [Example 194, 6-(3-Chlorobenzyl)-1-methyl-7-(1,3-oxazol-2-yl)-6H-pyrrolo[2,3-e][1,2,4]triazolo[4,3-a]pyridine trifluoroacetate salt]",≥ 6.00
14,"Cc1nnc2ccc3c(cc(-c4ncco4)n3Cc3cc(Cl)cc(CN4CCC4)c3)n12 [Example 195, 6-[3-(Azetidin-1-ylmethyl)-5-chlorobenzyl]-1-methyl-7-(1,3-oxazol-2-yl)-6H-pyrrolo[2,3-e][1,2,4]triazolo[4,3-a]pyridine bis(trifluoroacetate) salt]",≥ 6.00
15,"Cc1nnc2ccc3c(cc(-c4ncco4)n3Cc3cc(Cl)cc(CN4CC(C)(C)C4)c3)n12 [Example 196, 6-{3-Chloro-5-[(3,3-dimethylazetidin-1-yl)methyl]benzyl}-1-methyl-7-(1,3-oxazol-2-yl)-6H-pyrrolo[2,3-e][1,2,4]triazolo[4,3-a]pyridine bis(trifluoroacetate) salt]",≥ 6.00
16,"Cc1nnc2ccc3c(cc(-c4ncco4)n3Cc3cc(Cl)cc(CN4CCCC4)c3)n12 [Example 197, 6-[3-Chloro-5-(pyrrolidin-1-ylmethyl)benzyl]-1-methyl-7-(1,3-oxazol-2-yl)-6H-pyrrolo[2,3-e][1,2,4]triazolo[4,3-a]pyridine bis(trifluoroacetate) salt]",≥ 6.00
17,"Cc1nnc2ccc3c(cc(-c4ncco4)n3Cc3cc(Cl)cc(CN4CC(O)C4)c3)n12 [Example 198, 1-(3-Chloro-5-{[1-methyl-7-(1,3-oxazol-2-yl)-6H-pyrrolo[2,3-e][1,2,4]triazolo[4,3-a]pyridin-6-yl]methyl}benzyl)azetidin-3-ol bis(trifluoroacetate) salt]",≥ 6.00
18,"Cc1cc2c(cc(Nc3cc[nH]n3)c3nnc(C)n32)n1Cc1ccccc1 [Example 200, 6-Benzyl-1,7-dimethyl-N-1H-pyrazol-3-yl-6H-pyrrolo[2,3-e][1,2,4]triazolo[4,3-a]pyridin-4-amine tris(trifluoroacetate) salt]",≥ 6.00
19,"Cc1cc2c(cc(Nc3ncccn3)c3nnc(C)n32)n1Cc1ccccc1 [Example 201, 6-Benzyl-1,7-dimethyl-N-pyrimidin-2-yl-6H-pyrrolo[2,3-e][1,2,4]triazolo[4,3-a]pyridin-4-amine tris(trifluoroacetate) salt]",≥ 6.00
20,"Cc1cc2c(cc(Nc3ccn(C)n3)c3nnc(C)n32)n1Cc1ccccc1 [Example 202, 6-Benzyl-1,7-dimethyl-N-(1-methyl-1H-pyrazol-3-yl)-6H-pyrrolo[2,3-e][1,2,4]triazolo[4,3-a]pyridin-4-amine tris(trifluoroacetate) salt]",≥ 6.00
21,"Cc1cc2c(cc(Nc3nc4ccccc4o3)c3nnc(C)n32)n1Cc1ccccc1 [Example 203, N-1,3-Benzoxazol-2-yl-6-benzyl-1,7-dimethyl-6H-pyrrolo[2,3-e][1,2,4]triazolo[4,3-a]pyridin-4-amine bis(trifluoroacetate) salt]",≥ 6.00
22,"Cc1cc2c(cc(O)c3nnc(C)n32)n1Cc1ccccc1 [Example 204, 6-Benzyl-1,7-dimethyl-6H-pyrrolo[2,3-e][1,2,4]triazolo[4,3-a]pyridin-4-ol trifluoroacetate salt]",5.00 to 6.00
23,"Cc1cc2c(cc(Nc3nc4ccccc4[nH]3)c3nnc(C)n32)n1Cc1ccccc1 [Example 205, N-1H-Benzimidazol-2-yl-6-benzyl-1,7-dimethyl-6H-pyrrolo[2,3-e][1,2,4]triazolo[4,3-a]pyridin-4-amine trifluoroacetate salt]",≥ 6.00
24,"Cc1cc2c(cc(NC3CCNCC3)c3nnc(C)n32)n1Cc1ccccc1 [Example 206, 6-Benzyl-1,7-dimethyl-N-piperidin-4-yl-6H-pyrrolo[2,3-e][1,2,4]triazolo[4,3-a]pyridin-4-amine]",≥ 6.00
25,"Cc1cc2c(cc(NC3CCN(C)CC3)c3nnc(C)n32)n1Cc1ccccc1 [Example 207, 6-Benzyl-1,7-dimethyl-N-(1-methylpiperidin-4-yl)-6H-pyrrolo[2,3-e][1,2,4]triazolo[4,3-a]pyridin-4-amine]",≥ 6.00
26,"Cc1cc2c(cc(NCCN3CCOCC3)c3nnc(C)n32)n1Cc1ccccc1 [Example 208, 6-Benzyl-1,7-dimethyl-N-(2-morpholin-4-ylethyl)-6H-pyrrolo[2,3-e][1,2,4]triazolo[4,3-a]pyridin-4-amine]",5.00 to 6.00
27,"COCCNc1cc2c(cc(C)n2Cc2ccccc2)n2c(C)nnc12 [Example 209, 6-Benzyl-N-(2-methoxyethyl)-1,7-dimethyl-6H-pyrrolo[2,3-e][1,2,4]triazolo[4,3-a]pyridin-4-amine]",5.00 to 6.00
28,"Cc1cc2c(cc(NCCO)c3nnc(C)n32)n1Cc1ccccc1 [Example 210, 2-[(6-Benzyl-1,7-dimethyl-6H-pyrrolo[2,3-e][1,2,4]triazolo[4,3-a]pyridin-4-yl)amino]ethanol]",5.00 to 6.00
29,"Cc1cc2c(cc(NC3CCN(S(C)(=O)=O)CC3)c3nnc(C)n32)n1Cc1ccccc1 [Example 211, 6-Benzyl-1,7-dimethyl-N-[1-(methylsulfonyl)piperidin-4-yl]-6H-pyrrolo[2,3-e][1,2,4]triazolo[4,3-a]pyridin-4-amine]",≥ 6.00

# Same assay, conditions: KMS.12.BM human myeloma cells, 3 days, Cell Titer-GLO ATP quantitation; read-out: KMS cellular IC50
row,SMILES,pIC50
1,"Cc1nnc2ccc3c(cc(-c4cc[nH]n4)n3Cc3cccc(CN4CCC4)c3)n12 [Example 182, 6-[3-(Azetidin-1-ylmethyl)benzyl]-1-methyl-7-(1H-pyrazol-3-yl)-6H-pyrrolo[2,3-e][1,2,4]triazolo[4,3-a]pyridine tris(trifluoroaceate) salt]",≥ 6.00
